Measurements as given in US11306117B2, “Whitening composition containing novel quercetin-based compound” (AMOREPACIFIC CORPORATION, priority 2017, dated 2022).

Columns and labels:
[1] = biological target: mushroom tyrosinase; test: Inhibition of tyrosinase activity; format: biochemical; details: L-tyrosine, 37° C., 20 minutes, absorbance 490 nm
Method: The effect of New Materials 31 and 32 on inhibiting tyrosinase activity was evaluated.
Specifically, tyrosinase and tyrosine derived from mushroom were obtained from Sigma Chemical. Together with 150 μl of 0.1 M phosphate buffer (pH 6.5), 8 μl of mushroom tyrosinase (2,100 unit/ml) and 0.05 M concentration of L-tyrosine, arbutin and New Materials 31 and 32 were treated at the concentrations of following Table 3, respectively. The tyrosinase activity was evaluated by performing the enzyme reaction at 37° C. for 20 minutes and then measuring absorbance at 490 nm using a microplate reader (Bio-Rad 3550, Richmond, Calif., U.S.A.).

[2] = test system: Mel-Ab cell line; test: Inhibition of melanogenesis in Mel-Ab cells (method of Dooley); format: cell-based, C57BL/6; details: melanin by absorbance at 400 nm after 5 days
Method: The effects of New Materials 31 and 32 on inhibiting melanogenesis were compared with Kojic acids which have been known to have an excellent skin whitening effect, and measured.
Specifically, the degree of melanogenesis in cells was measured by a method of Dooley. As the cell line, Mel-Ab cell line (Falcon, U.S.A.) derived from a skin pigment of C57BL/6 was used. Culturing was made under the condition of 37° C., 5% CO2 of a DMEM medium containing 10% placenta serum, 100 nM 12-O-tetradecanoylphorbol-13-acetate, and 1 nM Cholera Toxin. The test materials were treated in the manner where the cultured Mel-Ab cell was isolated with 0.25% trypsin-EDTA, and inoculated again with the same number (1×10^5 cells/well) in the 24-well plate, and then the medium was replaced with a medium containing the test materials for two days from the second day. As the test materials, 5 ppm, 10 ppm, 25 ppm and 50 ppm of New Materials 31 and 32, 25 ppm, 50 ppm and 100 ppm of Kojic acids and DMSO (control) were used. After 5 days, the test materials were treated with 1N-NaOH to dissolve melanin contained in the cell, and the amount of melanin was measured by measuring absorbance at 400 nm. The concentration (IC50) of the material necessary for reducing melanogenesis of melanocyte by half was calculated, and the results are shown in following Table 4.

SMILES	IC50 inhibiting tyrosinase activity [1] [ppm]	IC50 inhibiting melanogenesis [2] [ppm]
C[C@@H]1O[C@@H](OC[C@H]2O[C@@H](Oc3c(-c4ccc(O)c(O)c4)oc4cc(O)cc(O)c4c3=O)[C@H](O)[C@@H](OC(=O)/C=C/c3ccc(O)cc3)[C@@H]2O)[C@H](O)[C@H](O[C@@H]2O[C@H](CO)[C@@H](O)[C@H](O)[C@H]2O)[C@H]1O [New Material 31, quercetin3-O-[3-O″-(E)-p-coumaroyl][β-D-glucopyranosyl-(1→3)-O-α-L-rhamnopyranosyl-(1→6)-O-β-D-glucopyranoside]]	16	23.5
C[C@@H]1O[C@@H](OC[C@H]2O[C@@H](Oc3c(-c4ccc(O)c(O)c4)oc4cc(O)cc(O)c4c3=O)[C@H](O)[C@@H](OC(=O)/C=C/c3ccc(O)cc3)[C@@H]2O)[C@H](O)[C@H](O)[C@H]1O [New Material 32, quercetin3-O-[3-O″-(E)-p-coumaroyl][α-L-rhamnopyranosyl-(1→6)-O-β-D-glucopyranoside]]	19	23.5
